System: stomach cancer cell line MGC803
Experiment: Anti-tumor activity in vitro, MTT method
Settings: Homo sapiens, MGC-803, 48 h, read-out: MGC803 (IC50/μM)
Description: MTT method: the dehydrogenase associated with NADP in the mitochondria of living cell is capable of reducing exogenous MTT into insoluble bluish violet crystal (Formazan), which is precipitated in the cell. […] DMSO or Triple liquid (10% SDS-5% isobutanol-0.01 mol/L HCl) is used to dissolve the crystal in the cell. The OD determined at 570 nm by a microplate reader can reflect the amount of the living cell indirectly.
The crystal is dissolved with DMSO and the detection is performed on a microplate reader.

Question: `CN1CCN(Cc2ccc(NC(=O)c3n[nH]cc3Nc3ncnc4sccc34)cc2)CC1` [Compound I-1, 4-(4-thieno[2,3-d]pyrimidinylamino)-N-(4-((4-methyl-1-piperazinyl)methyl)phenyl)-1H-3-pyrazole carboxamide] was tested. Which IC50 did it give?
Answer: 2.27 µM

Reference: patent US9550792B2, “Polycyclic substituted pyrazole kinase activity inhibitors and use thereof” (priority 2013, dated 2017)
